Our source for the inhibition and Ki values is patent US7998978B2 (Pfizer Inc., priority 2006, dated 2011).

pKi: −log10 of the molar value.

The target in one test is T1, JNK1α1 (Homo sapiens, UniProt P45983).
T1 construct: catalytic domain containing amino acids 1-364 and N-terminal hexahistidine tag; hexahistidine (His6) (N); made in house; host or cells: E. coli BL21 (DE3)
T1 sequence (P45983 1-364): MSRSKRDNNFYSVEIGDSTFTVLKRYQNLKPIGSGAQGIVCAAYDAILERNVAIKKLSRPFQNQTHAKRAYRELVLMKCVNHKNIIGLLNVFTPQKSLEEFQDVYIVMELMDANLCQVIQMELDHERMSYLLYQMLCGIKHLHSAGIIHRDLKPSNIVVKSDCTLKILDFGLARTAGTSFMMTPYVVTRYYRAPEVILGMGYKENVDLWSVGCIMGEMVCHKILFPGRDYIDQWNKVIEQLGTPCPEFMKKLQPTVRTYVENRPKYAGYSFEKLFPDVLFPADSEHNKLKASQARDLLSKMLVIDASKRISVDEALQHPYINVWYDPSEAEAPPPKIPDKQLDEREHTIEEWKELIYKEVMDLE
Put plainly: Coupled spectrophotometric (PK/LDH) JNK1α1 assay: % inhibition and Ki determination. It counts as biochemical. Conditions: @1 uM; read-out: % Inhibition JNK-1. How it is done: % Inhibition and Ki Determination
A coupled spectrophotometric assay, coupling JNK1α1 activity to the oxidation of β-NADH to NAD+ through the action of pyruvate kinase (PK) and lactic dehydrogenase (LDH), was used to determine the potency (percent inhibition at 1 or 10 μM or Ki) of compounds against JNK1α1 (Genbank Accession Number: L26318). […] The reaction was monitored by following the decrease in absorbance at 340 nm. The initial reaction rate was determined by the slope of the change in absorbance. To calculate percent inhibition the rate of the reaction in the presence of 1 or 10 μM compound was compared to the rate of the reaction with only DMSO multiplied by 100 percent. Note, the background rate of the above reaction in the presence of 10 μM PHA-00738186 was subtracted from all rates. […] Y=(−X+Eo−(Ki*(1+A/Km))+((X−Eo+(Ki*(1+A/Km)))^2+4*Eo*(Ki*(1+A/Km)))^0.5)*(Vm*A/(Km+A)/(2*Eo)) Formula: • Parameters: Eo, Ki, A, Km, Vo • Y is initial reaction velocity; • X is inhibitor concentration; • A is [ATP]; • Ki is inhibition constant; • Vm is Vmax; • Eo is total (initial) enzyme concentration; • Km is ATP Km;
The compounds were prepared in 100% DMSO at a 40× concentration. For percent inhibition experiments this would be 400 or 40 μM for 10 and 1 μM final concentration, respectively. For the Ki determination 3× serial dilutions were made starting at 4 mM (100 μM at 1×) in DMSO. A total of 11 concentrations were used for the analysis. The compounds were added to the reaction plate first. Next, a solution containing the HEPES, MgCl2, DTT, peptide substrate, NADH, PEP, PK/LDH enzyme, and JNK1α1—364nHis enzyme was added to the assay plate. The plate was incubated at room temperature for 15 minutes. Then the plate was warmed to 30° C. for 5 minutes. The reaction was initiated with the addition of ATP. The reaction was run in a plate reader at 30° C. for 20 minutes with absorbance readings made about every 10 seconds.
The column with “#” heading refers to compound number as exemplified in the Examples section. The column with “Ki” heading refers to Ki (in nM). The column with “% Inhibition” heading refers to percent inhibition of JNK-1 at 1 μM or 10 μM (in %) unless otherwise stated. ND refers to no data was taken.
In the case of `CCn1ncnc1NC(=O)c1cccc2cnc(N[C@H]3CC[C@H](O)CC3)nc12` [Example 320, N-(1-ethyl-1H-1,2,4-triazol-5-yl)-2-[(trans-4-hydroxycyclohexyl)amino]quinazoline-8-carboxamide], the inhibition at 1 µM is 19%.
The same measure, in the same setting: under `Cc1c(C(C)NC(=O)c2cccc3cnc(N[C@H]4CC[C@H](O)CC4)nc23)cnn1C` (stereo partly drawn) [Example 479, N-[1-(1,5-dimethyl-1H-pyrazol-4-yl)ethyl]-2-[(trans-4-hydroxycyclohexyl)amino]quinazoline-8-carboxamide] stands 13%; under `O=C1OCCN1CCOc1ccc2cnc(N[C@H]3CC[C@H](O)CC3)nc2c1` [Example 282, 3-[2-({2-[(trans-4-hydroxycyclohexyl)amino]quinazolin-7-yl}oxy)ethyl]-1,3-oxazolidin-2-one], 71%.
On to `CCN1CCC(Oc2ccc3cnc(N[C@H]4CC[C@H](O)CC4)nc3c2)C1` (stereo partly drawn) [Example 278, trans-4-({7-[(1-ethylpyrrolidin-3-yl)oxy]quinazolin-2-yl}amino)cyclohexanol], for which the inhibition at 1 µM amounted to 27%.
In the case of `CC(C)(C)OCCOc1cccc2cnc(N[C@H]3CC[C@H](O)CC3)nc12` [Example 258, trans-4-{[8-(2-tert-butoxyethoxy)quinazolin-2-yl]amino}cyclohexanol], the inhibition at 1 µM came out at 30%.
On to `O=C(NCCC1CCCCO1)c1cccc2cnc(N[C@H]3CC[C@H](O)CC3)nc12` (stereo partly drawn) [Example 515, 2-[(trans-4-hydroxycyclohexyl)amino]-N-[2-(tetrahydro-2H-pyran-2-yl)ethyl]quinazoline-8-carboxamide], for which the inhibition at 1 µM was found to be 19%.
Regarding `O=C1CC[C@@H](COc2ccc3cnc(N[C@H]4CC[C@H](O)CC4)nc3c2)N1` [Example 280, (5S)-5-[({2-[(trans-4-hydroxycyclohexyl)amino]quinazolin-7-yl}oxy)methyl]pyrrolidin-2-one], the inhibition at 1 µM came to 37%.

The test is the same for the next values; noted with them: @10 uM; read-out: % Inhibition JNK-1.
As for `c1cc(CNc2cc3cc(-c4cn[nH]c4)ccc3cn2)[nH]n1` [Example 229, 6-(1H-pyrazol-4-yl)-N-(1H-pyrazol-5-ylmethyl)isoquinolin-3-amine], the inhibition at 10 µM came out at 17%.
For `Cc1cc(NC(=O)c2cccc3cnc(N[C@H]4CC[C@H](O)CC4)nc23)n(C(C)C)n1` [Example 312, 2-[(trans-4-hydroxycyclohexyl)amino]-N-(1-isopropyl-3-methyl-1H-pyrazol-5-yl)quinazoline-8-carboxamide], the inhibition at 10 µM is 76%.

Still in this test, the particulars now being: JNK-1.
Consider `CC(C)C[C@@H](CO)NC(=O)c1ccc2cnc(NC3CCCC3)nc2c1` [Example 390, 2-(cyclopentylamino)-N-[(1S)-1-(hydroxymethyl)-3-methylbutyl]quinazoline-7-carboxamide], for which the pKi is 6.48.
Regarding `CS(=O)(=O)CCNC(=O)c1cccc2cnc(N[C@H]3CC[C@H](O)CC3)nc12` [Example 106, 2-[(trans-4-hydroxycyclohexyl)amino]-N-[2-(methylsulfonyl)ethyl]quinazoline-8-carboxamide], the negative-log Ki (pKi) is 6.65.
In the case of `C[C@@H](CO)NC(=O)c1ccc2cnc(NC3CCCCC3)nc2c1` [Example 399, 2-(cyclohexylamino)-N-[(1S)-2-hydroxy-1-methylethyl]quinazoline-7-carboxamide], the pKi is 6.34.
On to `CC(C)(CO)NC(=O)c1cccc2cnc(N[C@H]3CC[C@H](NS(C)(=O)=O)CC3)nc12` [Example 132, N-(2-hydroxy-1,1-dimethylethyl)-2-({trans-4-[(methylsulfonyl)amino]cyclohexyl}amino)quinazoline-8-carboxamide], for which the pKi was 7.11.
`Cn1c(=O)c2c(ncn2CC(=O)Nc2cc3cc(-c4cn[nH]c4)ccc3cn2)n(C)c1=O` [Example 52, 2-(1,3-dimethyl-2,6-dioxo-1,2,3,6-tetrahydro-7H-purin-7-yl)-N-[6-(1H-pyrazol-4-yl)isoquinolin-3-yl]acetamide] had a pKi of 7.82.
Still for that read-out and setting: under `CCC[C@@H](CO)NC(=O)c1ccc2cnc(NC3CCC3)nc2c1` [Example 398, 2-(cyclobutylamino)-N-[(1S)-1-(hydroxymethyl)butyl]quinazoline-7-carboxamide] stands 6.35; under `O=C(NCC(O)c1ccccc1)c1cccc2cnc(N[C@H]3CC[C@H](O)CC3)nc12` (stereo partly drawn) [Example 443, 2-[(trans-4-hydroxycyclohexyl)amino]-N-(2-hydroxy-2-phenylethyl)quinazoline-8-carboxamide], 6.98; under `O[C@H]1CC[C@H](Nc2ncc3ccccc3n2)CC1` [Example 151, trans-4-(quinazolin-2-ylamino)cyclohexanol], 6.36.
In turn, `O=C(NCC1(O)CCOCC1)c1ccc2cnc(N[C@H]3CC[C@H](O)CC3)nc2c1` [Example 360, 2-[(trans-4-hydroxycyclohexyl)amino]-N-[(4-hydroxytetrahydro-2H-pyran-4-yl)methyl]quinazoline-7-carboxamide] showed a pKi of 5.76.
In the case of `O=C(CCc1cc(Cl)no1)Nc1cc2cc(-c3cn[nH]c3)ccc2cn1` [Example 12, 3-(3-chloroisoxazol-5-yl)-N-[6-(1H-pyrazol-4-yl)isoquinolin-3-yl]propanamide], the negative-log Ki (pKi) was 7.54.
As to `O=C(NC1CCCC1)c1cccc2cnc(N[C@H]3CC[C@H](O)CC3)nc12` [Example 115, N-cyclopentyl-2-[(trans-4-hydroxycyclohexyl)amino]quinazoline-8-carboxamide], the pKi was 6.64.
Compound `CC(C)(CN1CCOCC1)NC(=O)c1ccc2cnc(N[C@H]3CC[C@H](O)CC3)nc2c1` [Example 89, N-(1,1-dimethyl-2-morpholin-4-ylethyl)-2-[(trans-4-hydroxycyclohexyl)amino]quinazoline-7-carboxamide] gave a negative logarithm of the Ki (pKi) of 6.57. This pKi and that of the compound before are within 0.2 log units of each other.
For `COCCC(=O)Nc1cc2cc(-c3cn[nH]c3)ccc2cn1` [Example 27, 3-methoxy-N-[6-(1H-pyrazol-4-yl)isoquinolin-3-yl]propanamide], the pKi is 8.40.
Consider `O=C(NC[C@H]1C[C@@H]1CO)c1ccc2cnc(N[C@H]3CC[C@H](O)CC3)nc2c1` [Example 350, 2-[(trans-4-hydroxycyclohexyl)amino]-N-{[(1S,2S)-2-(hydroxymethyl)cyclopropyl]methyl} quinazoline-7-carboxamide], for which the pKi is 5.98.
On to `CS(=O)(=O)N1CCC(c2cccc3cnc(N[C@H]4CC[C@H](O)CC4)nc23)C1` (stereo partly drawn) [Example 195, trans-4-({8-[1-(methylsulfonyl)pyrrolidin-3-yl]quinazolin-2-yl}amino)cyclohexanol], for which the pKi was 7.09.
As to `O=C(Cc1c(F)cccc1C(F)(F)F)Nc1cc2cc(-c3cn[nH]c3)ccc2cn1` [Example 33, N-[6-(1H-pyrazol-4-yl)isoquinolin-3-yl]-2-[2-(trifluoromethyl-6-fluoro)phenyl]acetamide], the negative-log Ki (pKi) is 8.15.
`CC(C)[C@@H]1CC[C@@H](C)C[C@H]1OCC(=O)Nc1cc2cc(-c3cn[nH]c3)ccc2cn1` [Example 57, 2-{[(1R,2S,5R)-2-isopropyl-5-methylcyclohexyl]oxy}-N-[6-(1H-pyrazol-4-yl)isoquinolin-3-yl]acetamide]: the pKi is 8.40.
Turning to `C[C@H](CO)NC(=O)c1ccc2cnc(N[C@H]3CC[C@H](O)CC3)nc2c1` [Example 363], the negative logarithm of the Ki (pKi) was 5.71.
As to `CN1CCC(COc2ccc3cnc(N[C@H]4CC[C@H](O)CC4)nc3c2)CC1` [Example 156, trans-4-({7-[(1-methylpiperidin-4-yl)methoxy]quinazolin-2-yl}amino)cyclohexanol], the negative-log Ki (pKi) was 6.01. Against the preceding compound, the pKi is 0.30 log units higher.
Take `O=C(N[C@H]1CC[C@@H](CO)CC1)c1cccc2cnc(N[C@H]3CC[C@H](O)CC3)nc12` [Example 466, 2-[(trans-4-hydroxycyclohexyl)amino]-N-[cis-4-(hydroxymethyl)cyclohexyl]quinazoline-8-carboxamide]: the negative-log Ki (pKi) was 6.02. The pKi values of the last two compounds are within 0.2 log units of each other.
For the compound `O[C@H]1CC[C@H](Nc2ncc3cccc(OCC(F)(F)F)c3n2)CC1` [Example 244, trans-4-{[8-(2,2,2-trifluoroethoxy)quinazolin-2-yl]amino}cyclohexanol], the pKi was 6.63.
Consider `c1cc(CNc2cc3cc(-c4cn[nH]c4)ccc3cn2)cc(-n2cccn2)c1` [Example 224, 6-(1H-pyrazol-4-yl)-N-[3-(1H-pyrazol-1-yl)benzyl]isoquinolin-3-amine], for which the negative-log Ki (pKi) is 5.47.
